# Values joined by “and” are separate entries in the source; they are usually repeats but may differ in a detail not shown here. Equal values may be shown once. Square brackets hold non-standard residues; d marks the D form. Ends that are not written are not given here. d2Nal = N[C@H](Cc1ccc2ccccc2c1)C(=O)O
# How the values were obtained:
# [1] = system: Growth Hormone release; experiment: In Vitro Release of Growth Hormone in Rat; format: cell-based
# Method: (§1) In vitro and in vivo activity of certain compounds were determined in rats and adult beagle dogs (in vivo activity only).
# [2] = system: Growth Hormone release; experiment: In Vivo GH Release in Rats (i.v., serum GH by RIA); parameters: species or system Sprague-Dawley rats; settings: for In Vivo Release of Growth Hormone in Rat, GH: i.v., serum 10 min after injection
# Method: Immature female Sprague-Dawley rats were obtained from the Charles River Laboratories (Wilmington, Mass.). After arrival they were housed at 25° C. with a 14:10 hour light:dark cycle. Water and Purina rat chow were available ad libitum. Pups were kept with their mothers until 21 days of age.
# Twenty-six day old rats, six rats per treatment group, were anesthetized interperitoneally with 50 mg/kg of pentobarbital 20 minutes prior to i.v. treatment with peptide. Normal saline with 0.1% gelatin was the vehicle for intravenous (i.v.) injections of the peptides. The anesthetized rats, weighing 55-65 grams, were injected i.v. with the quantity of grown hormone releasing compounds indicated in Table 3. Injection was made as a 0.1 mL solution into the jugular vein.
# All animals were sacrificed by guillotine 10 minutes after final test injection (see Table 3). Trunk blood for the determination of blood GH levels was collected following decapitation. After allowing the blood to clot, it was centrifuged and the serum was separated from the clot. Serum was kept frozen until the day of sampling for radioimmunoassay (RIA) determination of growth hormone levels according to the following procedure, as developed by the National Institute of Arthritis, Diabetes and Digestive and Kidney Diseases (NIADDK).
# Reagents are generally added to the RIA analysis tubes at a single sitting, at refrigerator temperature (about 4° C.) in the following sequence: • (a) buffer, • (b) “cold” (i.e., non-radioactive) standard or unknown serum sample to be analyzed, • (c) radio-iodinated growth hormone antigen, and • (d) growth hormone antiserum.
# Reagent addition is generally carried out so that there is achieved a final RIA tube dilution of about 1:30,000 (antiserum to total liquid volume; vol:vol).
# The mixed reagents are then typically incubated at room temperature (about 25° C.) for about 24 hours prior to addition of a second antibody (e.g., goat or rabbit anti-monkey gamma globulin serum) which binds to and causes precipitation of the complexed growth hormone antiserum. Precipitated contents of the RIA tubes are then analyzed for the number of counts in a specified period of time in a gamma scintillation counter. A standard curve is prepared by plotting number of radioactive counts versus growth hormone (GH) level. GH levels of unknown are then determined by reference to the standard curve.
# Serum GH was measured by RIA with reagents provided by the National Hormone and Pituitary Program.
# Serum levels in Tables 3 and 4 are recorded in ng/mL in terms of the rat GH standard of 0.61 International Units/mg (IU/mg). Data is recorded as the mean ±standard error of the mean (SEM). Statistical analysis was performed with Student's t-test. In Table 3, the results shown are the average of studies with six rats.
# [3] = system: Growth Hormone release; experiment: In Vivo Release of Growth Hormone in Adult Beagle Dogs; parameters: unit not given here
# Method: as §1
# [4] = system: short-statured children with various degrees of GH deficiency; settings: cited from earlier work
# [5] = compound at .001 (dose unit not given)
# [6] = compound at .003 (dose unit not given)
# [7] = compound at .01 (dose unit not given)
# [8] = compound at 3 (dose unit not given)
# [9] = compound at .1 (dose unit not given)
# [10] = compound at .3 (dose unit not given)
substance,measurement,setting,value
Aib-DTrp-DTrp-Phe-Arg-5-aminopentylamide [DTrpPhe-Arg-5-amino pentamide],"In Vitro Release of Growth Hormone in Rat, GH",[1]; compound at .0001 (dose unit not given),1228 ng/mL
same,"In Vitro Release of Growth Hormone in Rat, GH",[1]; compound at .0003 (dose unit not given),1416 ng/mL
same,"In Vitro Release of Growth Hormone in Rat, GH",[1]; [5],1712 ng/mL
same,"In Vitro Release of Growth Hormone in Rat, GH",[1]; [6],1648 ng/mL
same,"In Vitro Release of Growth Hormone in Rat, GH",[1]; [7],1621 ng/mL
same,"In Vivo Release of Growth Hormone in Rat, GH",[2]; compound at 1 (dose unit not given),2272 ng/mL
same,"In Vivo Release of Growth Hormone in Rat, GH",[2]; [8],2929 ng/mL
same,"In Vivo Release of Growth Hormone in Rat, GH",[2]; [9],262 ng/mL
same,"In Vivo Release of Growth Hormone in Rat, GH",[2]; [10],274 ng/mL
same,In Vivo Release of Growth Hormone in Adult Beagle Dogs,"[3]; oral dose 1 mg/kg, time 0 hr",2.5
same,In Vivo Release of Growth Hormone in Adult Beagle Dogs,"[3]; oral dose 1 mg/kg, time 0.5 hr",38
same,In Vivo Release of Growth Hormone in Adult Beagle Dogs,"[3]; oral dose 1 mg/kg, time 1 hr",8.5
same,In Vivo Release of Growth Hormone in Adult Beagle Dogs,"[3]; oral dose 1 mg/kg, time 2 hr",2.8
same,In Vivo Release of Growth Hormone in Adult Beagle Dogs,"[3]; oral dose 1 mg/kg, time 3 hr",2.3
same,In Vivo Release of Growth Hormone in Adult Beagle Dogs,"[3]; oral dose 1 mg/kg, time 4 hr",1.4
same,In Vivo Release of Growth Hormone in Adult Beagle Dogs,"[3]; oral dose 1 mg/kg, time 5 hr",1.7
same,In Vivo Release of Growth Hormone in Adult Beagle Dogs,"[3]; oral dose 1 mg/kg, time 6 hr",2.1
same,In Vivo Release of Growth Hormone in Adult Beagle Dogs,"[3]; oral dose 1 mg/kg, time 7 hr",2
same,In Vivo Release of Growth Hormone in Adult Beagle Dogs,"[3]; oral dose 1 mg/kg, time 8 hr",0.8
same,In Vivo Release of Growth Hormone in Adult Beagle Dogs,"[3]; oral dose 2 mg/kg, time 0 hr",3.1
same,In Vivo Release of Growth Hormone in Adult Beagle Dogs,"[3]; oral dose 2 mg/kg, time 0.5 hr",83
same,In Vivo Release of Growth Hormone in Adult Beagle Dogs,"[3]; oral dose 2 mg/kg, time 1 hr",20
same,In Vivo Release of Growth Hormone in Adult Beagle Dogs,"[3]; oral dose 2 mg/kg, time 2 hr",6.8
same,In Vivo Release of Growth Hormone in Adult Beagle Dogs,"[3]; oral dose 2 mg/kg, time 3 hr",3.9
same,In Vivo Release of Growth Hormone in Adult Beagle Dogs,"[3]; oral dose 2 mg/kg, time 4 hr",2.9
same,In Vivo Release of Growth Hormone in Adult Beagle Dogs,"[3]; oral dose 2 mg/kg, time 5 hr",3.3
same,In Vivo Release of Growth Hormone in Adult Beagle Dogs,"[3]; oral dose 2 mg/kg, time 6 hr",3.1
same,In Vivo Release of Growth Hormone in Adult Beagle Dogs,"[3]; oral dose 2 mg/kg, time 7 hr",3.3
same,In Vivo Release of Growth Hormone in Adult Beagle Dogs,"[3]; oral dose 2 mg/kg, time 8 hr",3
N-2-hydroxylethyl-Aib-DTrp-DPro-diisobutylamide [R^1 = -N-2-OHethyl/DPro-diisobutylamide],"In Vitro Release of Growth Hormone in Rat, GH",[1]; [5],452 ng/mL
same,"In Vitro Release of Growth Hormone in Rat, GH",[1]; [6],326 ng/mL
same,"In Vitro Release of Growth Hormone in Rat, GH",[1]; [7],526 ng/mL
same,"In Vitro Release of Growth Hormone in Rat, GH",[1]; compound at .03 (dose unit not given),820 ng/mL
same,"In Vitro Release of Growth Hormone in Rat, GH",[1]; [9],1163 ng/mL
same,"In Vitro Release of Growth Hormone in Rat, GH",[1]; [10],1217 ng/mL
same,"In Vivo Release of Growth Hormone in Rat, GH",[2]; [8],156 ng/mL
same,"In Vivo Release of Growth Hormone in Rat, GH",[2]; compound at 10 (dose unit not given),259 ng/mL
same,"In Vivo Release of Growth Hormone in Rat, GH",[2]; compound at 30 (dose unit not given),451 ng/mL
same,In Vivo Release of Growth Hormone in Adult Beagle Dogs,"[3]; oral dose 1 mg/kg, time 0.5 hr, 1 mg/kg",102 and 62
same,In Vivo Release of Growth Hormone in Adult Beagle Dogs,"[3]; oral dose 1 mg/kg, time 1 hr, 1 mg/kg",26 and 30
same,In Vivo Release of Growth Hormone in Adult Beagle Dogs,"[3]; oral dose 1 mg/kg, time 2 hr, 1 mg/kg",25 and 19
same,In Vivo Release of Growth Hormone in Adult Beagle Dogs,"[3]; oral dose 1 mg/kg, time 3 hr, 1 mg/kg",10
same,In Vivo Release of Growth Hormone in Adult Beagle Dogs,"[3]; oral dose 1 mg/kg, time 4 hr, 1 mg/kg",6.1 and 3.8
same,In Vivo Release of Growth Hormone in Adult Beagle Dogs,"[3]; oral dose 1 mg/kg, time 6 hr, 1 mg/kg",4.0 and 2.5
[dA][d2Nal]AW[dF]K-NH2 [GHRP-2],"GH ng/ml, GHRP-2 (.03)","[2]; rat, GHRP-2 reference standard, dose (.03) (dose unit not given)",811 ng/mL
same,effect on height velocity compared with chronic recombinant human growth hormone (rhGH) administration,[4]; in vivo,less effective
same,rate of height velocity,"[4]; short-statured children, 2-3 times per day over a 2 year period",accelerated
